# Experimental data as given in patent publication US11000033B2, “Ketone or oxime compound, and herbicide” (NISSAN CHEMICAL CORPORATION, priority 2014, dated 2021).
# How the values were obtained:
# Format in all cases: in vivo
# Scirpus juncoides = experiment: Test Example 1: herbicidal activity, application before weed generation in submerged conditions (symbol B); details: application herbicide amount 320 g/ha
# Procedure, shortened: (§1)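 Paddy pre-emergence test. Formulated emulsion, water-diluted to a predetermined rate, is applied to floodwater on sowing day; rice transplanted at 2.5 leaves. Effect read at 3 weeks on a 0–5 herbicidal-ratio scale.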
# Monochoria vaginalis = experiment: Test Example 1: herbicidal activity, application before weed generation in submerged conditions (symbol C); details: application herbicide amount 320 g/ha
# Procedure, shortened: as §1
# Leptochloa chinensis = experiment: Test Example 3: herbicidal effect by foliage application, Wagner pot (symbol D); details: application herbicide amount 320 g/ha
# Procedure, shortened: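 Alluvial soil was flooded to a depth of 0.1–0.5 cm, seeded with the weeds and rice, and kept in a greenhouse at 25–30 °C. After 14 days of growth, the foliage received a small-sprayer application of emulsion diluted to the intended rate; injury was rated at 3 weeks.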
# Setaria viridis [1] = experiment: Test Example 4: herbicidal effect by soil treatment (symbol G); details: for G (Setaria viridis) herbicidal effect grade: application herbicide amount 320 g/ha
# Procedure, shortened: (§2)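 Seeds were sown in sterilized diluvial soil, covered with about 1.5 cm of soil, and the soil surface was sprayed with a water-diluted emulsion of the compound at a predetermined rate. Plants grew in a greenhouse at 25° C. to 30° C.; effects were scored visually 3 weeks after application.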
# [2] = tested on: Echinochloa crus-galli var. crus-galli; experiment: Test Example 4: herbicidal effect by soil treatment (symbol H); details: for H (Echinochloa crus-galli var. crus-galli) herbicidal effect grade: application herbicide amount 320 g/ha
# Procedure, shortened: as §2
# Lolium multiflorum Lam. = experiment: Test Example 4: herbicidal effect by soil treatment (symbol K); details: for K (Lolium multiflorum Lam.) herbicidal effect grade: application herbicide amount 320 g/ha
# Procedure, shortened: as §2
# Apera spica-venti = experiment: Test Example 4: herbicidal effect by soil treatment (symbol L); details: for L (Apera spica-venti) herbicidal effect grade: application herbicide amount 320 g/ha
# Procedure, shortened: as §2
# Amaranthus retroflexus = experiment: Test Example 4: herbicidal effect by soil treatment (symbol N); details: for N (Amaranthus retroflexus) herbicidal effect grade: application herbicide amount 320 g/ha
# Procedure, shortened: as §2
# Stellaria media [3] = experiment: Test Example 4: herbicidal effect by soil treatment (symbol P); details: for P (Stellaria media) herbicidal effect grade: application herbicide amount 320 g/ha
# Procedure, shortened: as §2
# corn = experiment: Test Example 4: effect on crop by soil treatment (symbol c); details: for c (corn) effect on crop grade: application herbicide amount 320 g/ha
# Procedure, shortened: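 Grown at 25° C. to 30° C. in a greenhouse, the crops came from seed sown spot-wise in sterilized diluvial soil under roughly 1.5 cm of covering soil.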
# rapeseed [4] = experiment: Test Example 4: effect on crop by soil treatment (symbol g); details: for g (rapeseed) effect on crop grade: application herbicide amount 320 g/ha
# Procedure, shortened: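 The test used sterilized diluvial soil. Seed was set down in spots and overlaid with about 1.5 cm of soil before growth in a greenhouse kept at 25° C. to 30° C.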
# Setaria viridis [5] = experiment: Test Example 5: herbicidal effect by foliage application, plastic box (symbol G); details: 320 g/ha, 3 weeks after application
# Procedure, shortened: (§3)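 Effect is rated 3 weeks after a foliar spray of water-diluted emulsion concentrate at a predetermined herbicide amount. Plants had grown 14 days in a 25° C. to 30° C. greenhouse from seed in sterilized diluvial soil.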
# [6] = tested on: Echinochloa crus-galli var. crus-galli; experiment: Test Example 5: herbicidal effect by foliage application, plastic box (symbol H); details: 320 g/ha, 3 weeks after application
# Procedure, shortened: as §3
# Alopecurus myosuroides = experiment: Test Example 5: herbicidal effect by foliage application, plastic box (symbol J); details: 320 g/ha, 3 weeks after application
# Procedure, shortened: as §3
# Stellaria media [7] = experiment: Test Example 5: herbicidal effect by foliage application, plastic box (symbol P); details: 320 g/ha, 3 weeks after application
# Procedure, shortened: as §3
# wheat = experiment: Test Example 5: effect on crop by foliage application, plastic box (symbol e); details: 320 g/ha, 3 weeks after application
# Procedure, shortened: (§4)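 Crop seed is sown alongside grass and broadleaf weed species in spots in sterilized diluvial soil, then covered to a depth of about 1.5 cm. Plants grow in a greenhouse kept at 25° C. to 30° C.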
# rapeseed [8] = experiment: Test Example 5: effect on crop by foliage application, plastic box (symbol g); details: 320 g/ha, 3 weeks after application
# Procedure, shortened: as §4
SMILES,"Herbicidal effect grade, B: Scirpus juncoides (Scirpus juncoides)","Herbicidal effect grade, C: Monochoria vaginalis (Monochoria vaginalis)","herbicidal effect on D (Leptochloa chinensis), grade 0-5 (Leptochloa chinensis)",G (Setaria viridis) herbicidal effect grade (Setaria viridis [1]),H (Echinochloa crus-galli var. crus-galli) herbicidal effect grade [2],K (Lolium multiflorum Lam.) herbicidal effect grade (Lolium multiflorum Lam.),L (Apera spica-venti) herbicidal effect grade (Apera spica-venti),N (Amaranthus retroflexus) herbicidal effect grade (Amaranthus retroflexus),P (Stellaria media) herbicidal effect grade (Stellaria media [3]),c (corn) effect on crop grade (corn),g (rapeseed) effect on crop grade (rapeseed [4]),"G: Setaria viridis, herbicidal effect grade (Setaria viridis [5])","H: Echinochloa crus-galli var. crus-galli, herbicidal effect grade [6]","J: Alopecurus myosuroides, herbicidal effect grade (Alopecurus myosuroides)","P: Stellaria media, herbicidal effect grade (Stellaria media [7])","e: wheat, effect on crop grade (wheat)","g: rapeseed, effect on crop grade (rapeseed [8])",also measured
CON=C(C)CC1CC(OC(=O)C(C)(C)Oc2ccccc2Cl)=C(c2c(C)cc(C)cc2C)C1=O (centres unmarked) [1-064],5 (Herbicidal ratio of 90% or more (almost completely withered)),1 (Herbicidal ratio of 5% or higher and lower than 20%),5 (Herbicidal ratio of 90% or more (almost completely withered)),5 (Herbicidal ratio of 90% or more (almost completely withered)),5 (Herbicidal ratio of 90% or more (almost completely withered)),5 (Herbicidal ratio of 90% or more (almost completely withered)),5 (Herbicidal ratio of 90% or more (almost completely withered)),4 (Herbicidal ratio of 70% or higher and lower than 90%),0 (Herbicidal ratio of 5% or lower (almost no effect)),5 (Herbicidal ratio of 90% or more (almost completely withered)),4 (Herbicidal ratio of 70% or higher and lower than 90%),5 (Herbicidal ratio of 90% or more (almost completely withered)),5 (Herbicidal ratio of 90% or more (almost completely withered)),5 (Herbicidal ratio of 90% or more (almost completely withered)),1 (Herbicidal ratio of 5% or higher and lower than 20%),5 (Herbicidal ratio of 90% or more (almost completely withered)),4 (Herbicidal ratio of 70% or higher and lower than 90%),–
CON=C(C)CC1CC(OC(=O)C(C)(C)Oc2cccc(Cl)c2)=C(c2c(C)cc(C)cc2C)C1=O (centres unmarked) [1-065],5 (Herbicidal ratio of 90% or more (almost completely withered)),0 (Herbicidal ratio of 5% or lower (almost no effect)),5 (Herbicidal ratio of 90% or more (almost completely withered)),5 (Herbicidal ratio of 90% or more (almost completely withered)),5 (Herbicidal ratio of 90% or more (almost completely withered)),5 (Herbicidal ratio of 90% or more (almost completely withered)),5 (Herbicidal ratio of 90% or more (almost completely withered)),5 (Herbicidal ratio of 90% or more (almost completely withered)),0 (Herbicidal ratio of 5% or lower (almost no effect)),5 (Herbicidal ratio of 90% or more (almost completely withered)),4 (Herbicidal ratio of 70% or higher and lower than 90%),5 (Herbicidal ratio of 90% or more (almost completely withered)),5 (Herbicidal ratio of 90% or more (almost completely withered)),5 (Herbicidal ratio of 90% or more (almost completely withered)),0 (Herbicidal ratio of 5% or lower (almost no effect)),5 (Herbicidal ratio of 90% or more (almost completely withered)),4 (Herbicidal ratio of 70% or higher and lower than 90%),–
CON=C(C)CC1CC(OC(=O)COc2ccc(OC)cc2)=C(c2c(C)cc(C)cc2C)C1=O (centres unmarked) [1-069],4 (Herbicidal ratio of 70% or higher and lower than 90%),2 (Herbicidal ratio of 20% or higher and lower than 40%),5 (Herbicidal ratio of 90% or more (almost completely withered)),4 (Herbicidal ratio of 70% or higher and lower than 90%),5 (Herbicidal ratio of 90% or more (almost completely withered)),5 (Herbicidal ratio of 90% or more (almost completely withered)),5 (Herbicidal ratio of 90% or more (almost completely withered)),4 (Herbicidal ratio of 70% or higher and lower than 90%),0 (Herbicidal ratio of 5% or lower (almost no effect)),5 (Herbicidal ratio of 90% or more (almost completely withered)),4 (Herbicidal ratio of 70% or higher and lower than 90%),5 (Herbicidal ratio of 90% or more (almost completely withered)),5 (Herbicidal ratio of 90% or more (almost completely withered)),5 (Herbicidal ratio of 90% or more (almost completely withered)),3 (Herbicidal ratio of 40% or higher and lower than 70%),5 (Herbicidal ratio of 90% or more (almost completely withered)),4 (Herbicidal ratio of 70% or higher and lower than 90%),–
CON=C(C)CC1CC(OC(=O)COc2ccc(C=O)cc2)=C(c2c(C)cc(C)cc2C)C1=O (centres unmarked) [1-079],5 (Herbicidal ratio of 90% or more (almost completely withered)),3 (Herbicidal ratio of 40% or higher and lower than 70%),5 (Herbicidal ratio of 90% or more (almost completely withered)),–,–,–,–,–,–,–,–,–,–,–,–,–,–,"G: Setaria viridis, herbicidal effect grade (Setaria viridis [1]; 320 g/ha): 5 (Herbicidal ratio of 90% or more (almost completely withered)); H: Echinochloa crus-galli var. crus-galli, herbicidal effect grade ([2]; 320 g/ha): 5 (Herbicidal ratio of 90% or more (almost completely withered)); K: Lolium multiflorum Lam., herbicidal effect grade (Lolium multiflorum Lam.; 320 g/ha): 5 (Herbicidal ratio of 90% or more (almost completely withered)); L: Apera spica-venti, herbicidal effect grade (Apera spica-venti; 320 g/ha): 5 (Herbicidal ratio of 90% or more (almost completely withered)); N: Amaranthus retroflexus, herbicidal effect grade (Amaranthus retroflexus; 320 g/ha): 4 (Herbicidal ratio of 70% or higher and lower than 90%); P: Stellaria media, herbicidal effect grade (Stellaria media [3]; 320 g/ha): 0 (Herbicidal ratio of 5% or lower (almost no effect)); c: corn, effect grade on crop (corn; 320 g/ha): 4 (Herbicidal ratio of 70% or higher and lower than 90%); g: rapeseed, effect grade on crop (rapeseed [4]; 320 g/ha): 4 (Herbicidal ratio of 70% or higher and lower than 90%); G: Setaria viridis, herbicidal effect (criteria 0-5) (Setaria viridis [5]): 5 (Herbicidal ratio of 90% or more (almost completely withered)); H: Echinochloa crus-galli var. crus-galli, herbicidal effect (criteria 0-5) [6]: 5 (Herbicidal ratio of 90% or more (almost completely withered)); J: Alopecurus myosuroides, herbicidal effect (criteria 0-5) (Alopecurus myosuroides): 5 (Herbicidal ratio of 90% or more (almost completely withered)); P: Stellaria media, herbicidal effect (criteria 0-5) (Stellaria media [7]): 1 (Herbicidal ratio of 5% or higher and lower than 20%); e: wheat, effect on crop (criteria 0-5) (wheat): 4 (Herbicidal ratio of 70% or higher and lower than 90%); g: rapeseed, effect on crop (criteria 0-5) (rapeseed [8]): 5 (Herbicidal ratio of 90% or more (almost completely withered))"
